Values after ≈ are worked out from the molar mass of the structure shown. Like-named read-outs stand apart in the source and are kept apart here. Values belong to the compound of their own block, whether it stands above or below them. Residues, ends and D or L forms follow the SMILES beside them. No end group written: not given here. *: point of attachment. Lauroyl = CCCCCCCCCCCC(=O)*
Legend:
[1] = test system: N. gonorrhoeae strain FA 19; settings: for MIC activity against gonococci (in words): N. gonorrhoeae FA19
Procedure: The peptides were dissolved in 0.01 % (v/v) acetic acid and stored at −20°C prior to use. Antibacterial assays were performed as described previously and used N. gonorrhoeae strain FA 19. All assays were performed in triplicate and values are reported as the minimal inhibitory concentration (MIC).

purified CPS polymers = assay: Neutralizing activity against purified CPS polymers (pro-inflammatory capacity of CPS); format: cell-based, Neisseria meningitidis; settings: compared with LL-37
Procedure: (§1) Human THP-1 (macrophage-like cells) and murine RAW 264.7 (TLR4-sufficient), 23ScCr (TLR4-deficient) and HEK-TLR2/6/CD14 stably transfected cell lines were stimulated with meningococcal CPS polymers with or without pre-incubation with LL-37 and its analogs (Table 1). CPS polymers were purified from the LPS-deficient serogroup B Neisseria meningitidis lpxA mutant as well as other meningococcal serogroups A, B, C, W135 and Y. Purified CPS samples were freshly dissolved in pyrogen-free sterile H2O at 1 mg/ml stock concentration and vortexed for 2 min. Working CPS concentrations (ranging from 100 µg/ml to 50 ng/ml) were made in duplicate wells using sterile PBS by serial fold dilutions in the 96-well tissue culture plates (Becton Dickinson, Franklin Lakes, NJ) at 50 µl final volumes. Cationic peptides (2, 4 or 8 µg/ml) or PBS equivalent volumes were added to designated wells and pre-incubated for 30 min at 37°C. Freshly grown THP-1 cells and HEK-TLR2/6 transfected cells as well as murine macrophages, each adjusted to 10^6 cell/ml and 250 µl aliquots were dispensed into each well at final 250×10^3 cell density in the designated 96-well plates. The plates were incubated overnight at 37°C with 5% CO2 and humidity. Supernatants from stimulated cells were harvested and stored at −20°C until use.

RAW 264.7 macrophages = assay: Nitric oxide release from RAW 264.7 macrophages induced with meningococcal CPS (Griess method); format: cell-based, murine; settings: RAW 264, serogroup A CPS (laboratory NMA or vaccine grade MAPS 20 µg/ml) pre-incubated with 4 µg/ml analogs; nitrite after 24 h; Figure S1A, S1B
Procedure: as §1
Freshly grown adherent RAW 246.7 or 23ScCr (TLR4-deficient) macrophages were harvested, washed and re-suspended in Dulbecco's complete media, counted and adjusted to 10^6 cell/ml. 250 µl aliquots were then dispensed into each well of a 96-well plate at final 250×10^3 cell density prior to stimulation with purified CPS polymers with or without cationic peptides. The induced RAW 264.7 or 23ScCr macrophages were incubated overnight at 37°C with 5% CO2 and supernatants were harvested and saved. Nitric oxide release was quantified using the Greiss chemical method as previously described.

[2] = test system: ScCr (TLR4-deficient) murine macrophages; assay: Nitric oxide release from 23ScCr (TLR4-deficient) macrophages induced with meningococcal CPS (Griess method); format: cell-based; settings: ScCr cells, 20 µg/ml CPS of serogroups A, B, C, Y, W135 pre-incubated 30 min with 4 µg/ml LL-37 analogs or 20 µg/ml ampicillin or erythromycin; overnight; Figure 6
Procedure: as §1, with “Freshly grown THP-1 cells and HEK-TLR2/6 transfected cells as well as murine macrophages, each adjusted to 10^6 cell/ml and 250 µl aliquots were dispensed into each well at final 250×10^3 cell density in the designated 96-well plates. The plates were incubated overnight at 37°C with 5% CO2 and humidity. Supernatants from stimulated cells were harvested and stored at −20°C until use.” left out
Freshly grown adherent RAW 246.7 or 23ScCr (TLR4-deficient) macrophages were harvested, washed and re-suspended in Dulbecco's complete media, counted and adjusted to 10^6 cell/ml. […] Nitric oxide release was quantified using the Greiss chemical method as previously described.

THP-1 cells [3] = assay: TNFα release from THP-1 cells induced with meningococcal CPS pre-incubated with peptide (ELISA); format: cell-based, human
Procedure: as §1, with “Cationic peptides (2, 4 or 8 µg/ml) or PBS equivalent volumes were added to designated wells and pre-incubated for 30 min at 37°C.” left out
(§2) The cytokines TNFα, IL-6 and CXCL10 (IP-10), released from THP-1 cells, and IL-8, released from HEK-TLR2 transfected cells stimulated with meningococcal CPS polymers, were quantified by DuoSet ELISA (R&D Systems) as previously described.

THP-1 cells [4] = assay: IL-6 release from THP-1 cells induced with meningococcal CPS pre-incubated with peptide (ELISA); format: cell-based, human; settings: THP-1 cells, CPS-lpxA 100 µg to 50 ng/ml with 10 µg/ml synthetic analogs; Figure 3B
Procedure: as §1, with “Cationic peptides (2, 4 or 8 µg/ml) or PBS equivalent volumes were added to designated wells and pre-incubated for 30 min at 37°C.” left out, “Supernatants from stimulated cells were harvested and stored at −20°C until use.” left out
as §2

NFκB = assay: Inducible NFκB dual luciferase reporter in HEK-TLR2/6 cells stimulated with CPS-lpxA; format: cell-based, human; settings: CPS-lpxA (20 µg/ml) pre-incubated with analogs (4 µg/ml) 30 min, induction 5 h, firefly normalized to Renilla, Figure 7A
Text: To determine the signaling pathways induced upon meningococcal CPS recognition, a transcription factors array (Cignal Finder™ 10-Pathway Reporter Arrays, SABiosciences, Fredrick, MD) consisting of 10 dual-luciferase reporters assays were used according to the manufacturer instructions. Each of the 10 reporter assays encodes for an inducible transcription factor responsive firefly luciferase reporter and constitutively expressing Renilla construct in 40∶1 ratio. Briefly, DNA reporter master mixes were prepared in SureFect transfection reagent (SABiosciences) diluted in Opti-MEM media without serum or antibiotics and 25 µl/well were dispensed into 96-well white tissue culture plates. For reverse transfection, freshly grown cells were counted and adjusted to 1×10^6 cells/ml in Opti-MEM without serum or antibiotics. 100 µl of cells (100×10^3 cells/well) were laid over the DNA reporters in 96-well plates and incubated overnight at 37°C with 5% CO2. Transfection media were removed and replaced with 150 µl of fresh D-MEM supplemented with 10% FBS and incubated again overnight at 37°C. Cells were then induced with meningococcal CPS polymers or LOS doses for 5 h and dual-luciferase reporter activity was determined using Dual-Luciferase reporter assay system (Promega Corporation, Madison, WI) following the manufacturer instructions. […]

Compound: LLGDFFDESEEEIGEEFEDIVQDIEDFLDNLVPDTES [LL-37 R/D-K/E]
MIC ([1]; strain FA 19): >1000 µg/mL

MIC ([1]; strain FA 19): >1000 µg/mL
Compound: LLGDFFRASAEAIGAEFARIVQRIADFLRNLVPRTES [LL-37 K/A]

MIC ([1]; strain FA 19): 3.9 µg/mL
Compound: FKRIVQRIKDFLRNLV [LL-17-32]

Compound: LLGDFFRESEEEIGEEFERIVQRIEDFLRNLVPRTES [LL-37 K/E]
MIC ([1]; N. gonorrhoeae FA19 (non-encapsulated), assays in triplicate): > 1000 µg/mL
Neutralizing activity against purified CPS polymers (purified CPS polymers): reduced neutralizing activity

MIC ([1]; strain FA 19): 7.8 µg/mL
Compound: EKIGKEFKRIVQRIKDFLRNLVPRTES [LL-11-37]

MIC ([1]; strain FA 19): 125 µg/mL
Compound: LLGDFFDKSKEKIGKEFKDIVQDIKDFLDNLVPDTES [LL-37 R/D]

Compound: CC1(C)S[C@@H]2[C@H](NC(=O)[C@H](N)c3ccccc3)C(=O)N2[C@H]1C(=O)O [ampicillin]
Inhibition of CPS polymers (nitric oxide release) (RAW 264.7 macrophages): this was not seen
Nitric oxide release induced by various meningococcal CPS [2]: this inhibition was not observed

MIC ([1]; strain FA 19): 3.9 µg/mL
Compound: FKRIVQRIKNFLRNLV [LL-17-32 D/N]

Compound: CC[C@H]1OC(=O)[C@H](C)[C@@H](O[C@H]2C[C@@](C)(OC)[C@@H](O)[C@H](C)O2)[C@H](C)[C@@H](O[C@@H]2O[C@H](C)C[C@H](N(C)C)[C@H]2O)[C@](C)(O)C[C@@H](C)C(=O)[C@H](C)[C@@H](O)[C@]1(C)O [erythromycin]
Nitric oxide release induced by various meningococcal CPS [2]: this inhibition was not observed

Compound: LLGKFFKKSKKKIGKKFKKIVQKIKKFLKNLVPKTKS [LL-37 K]
MIC activity against gonococci (in words) [1]: retained excellent MIC activity
MIC ([1]; strain FA 19): 7.8 µg/mL
Neutralizing activity against purified CPS polymers (purified CPS polymers): did not enhance the neutralizing activity

Compound: CCCCCCCCCCCC(=O)N[C@@H](Cc1ccccc1)C(=O)N[C@@H](CCCCN)C(=O)N[C@@H](CCCNC(=N)N)C(=O)N[C@H](C(=O)N[C@H](C(=O)N[C@@H](CCC(N)=O)C(=O)N[C@@H](CCCNC(=N)N)C(=O)N[C@H](C(=O)N[C@@H](CCCCN)C(=O)N[C@@H](CC(N)=O)C(=O)N[C@@H](Cc1ccccc1)C(=O)N[C@@H](CC(C)C)C(=O)N[C@@H](CCCNC(=N)N)C(=O)N[C@@H](CC(N)=O)C(=O)N[C@@H](CC(C)C)C(=O)N[C@H](C(=O)O)C(C)C)[C@@H](C)CC)C(C)C)[C@@H](C)CC [C12LL-17-32 D/N] (Lauroyl-FKRIVQRIKNFLRNLV-OH; C-terminus assumed)
MIC ([1]; strain FA 19): 3.9 µg/mL (≈ 1.75 µM)
Inhibition of TNFα release (interaction with CPS polymers) (THP-1 cells [3]; THP-1 cells, CPS-lpxA 100 µg to 50 ng/ml with 10 µg/ml synthetic analogs, Figure 3A): enhanced interaction with meningococcal CPS polymers
Inhibition of IL-6 release (interaction with CPS polymers) (THP-1 cells [4]): enhanced interaction with meningococcal CPS polymers

Compound: Polymyxin B
TNFα release (THP-1 cells [3]; THP-1 cells induced with the CPS-lpxA-analog complexes of the NFκB experiment, Figure 7B): decreased TNFα release
Inhibition of CPS polymers (nitric oxide release) (RAW 264.7 macrophages): inhibited CPS polymers
CPS induced NFκB induction (luciferase reporter) (NFκB): able to inhibit

Compound: LLGRFFRRSRRRIGRRFRRIVQRIRRFLRNLVPRTRS [LL-37 R]
MIC activity against gonococci (in words) [1]: retained excellent MIC activity
MIC ([1]; strain FA 19): 15.6 µg/mL
Neutralizing activity against purified CPS polymers (purified CPS polymers): did not enhance the neutralizing activity

MIC ([1]; strain FA 19): >1000 µg/mL
Compound: LLGDFFRKSKEKIGKEF [LL-1-17]

Reference: publication PMC2964311, “The Human Host Defense Peptide LL-37 Interacts with Neisseria meningitidis Capsular Polysaccharides and Inhibits Inflammatory Mediators Release” (PLoS ONE, 2010)
